Measurements reported in the NIST ThermoML archive (doi:10.1016/j.fluid.2008.03.011).
± gives the expanded uncertainty stated by the source.

Key:
[1] = excess molar enthalpy (molar enthalpy of mixing); xn = mol fraction of the nth substance listed; details: 363.15 K, Liquid, Flow calorimetry
[2] = activity coefficient (dimensionless); of the first substance listed, at infinite dilution; xn = mol fraction of the nth substance listed; details: 101 kPa, Liquid, x1 = 0
[3] = activity coefficient (dimensionless); of the first substance listed, at infinite dilution; wn = mass fraction of the nth substance listed; details: 101 kPa, Liquid, dilutor technique, w1 = 0

CCCCCC[n+]1ccn(C)c1.O=S(=O)([N-]S(=O)(=O)C(F)(F)F)C(F)(F)F + CC1CCCCC1
excess molar enthalpy ([1]; 1617 kPa, x2 = 0.0612): 0.0459 ± 0.00191 kcal/mol
excess molar enthalpy ([1]; 1617 kPa, x2 = 0.118): 0.092 ± 0.00382 kcal/mol
excess molar enthalpy ([1]; 1617 kPa, x2 = 0.1708): 0.132 ± 0.0055 kcal/mol
excess molar enthalpy ([1]; 1617 kPa, x2 = 0.2202): 0.166 ± 0.00669 kcal/mol
excess molar enthalpy ([1]; 1617 kPa, x2 = 0.2663): 0.176 ± 0.00717 kcal/mol
excess molar enthalpy ([1]; 1617 kPa, x2 = 0.3096): 0.173 ± 0.00693 kcal/mol
excess molar enthalpy ([1]; 1617 kPa, x2 = 0.3885): 0.154 ± 0.00621 kcal/mol
excess molar enthalpy ([1]; 1617 kPa, x2 = 0.4586): 0.136 ± 0.0055 kcal/mol
excess molar enthalpy ([1]; 1617 kPa, x2 = 0.5213): 0.12 ± 0.00502 kcal/mol
excess molar enthalpy ([1]; 1617 kPa, x2 = 0.6288): 0.0943 ± 0.00382 kcal/mol
excess molar enthalpy ([1]; 1617 kPa, x2 = 0.7176): 0.0722 ± 0.00287 kcal/mol
excess molar enthalpy ([1]; 1617 kPa, x2 = 0.7922): 0.0525 ± 0.00217 kcal/mol
excess molar enthalpy ([1]; 1617 kPa, x2 = 0.884): 0.0269 ± 0.00112 kcal/mol

CCCCCC[n+]1ccn(C)c1.O=S(=O)([N-]S(=O)(=O)C(F)(F)F)C(F)(F)F + CCCCCCCC
excess molar enthalpy ([1]; 1548 kPa, x2 = 0.0486): 0.0487 ± 0.00201 kcal/mol
excess molar enthalpy ([1]; 1548 kPa, x2 = 0.095): 0.0882 ± 0.00359 kcal/mol
excess molar enthalpy ([1]; 1548 kPa, x2 = 0.1392): 0.108 ± 0.0043 kcal/mol
excess molar enthalpy ([1]; 1548 kPa, x2 = 0.1814): 0.116 ± 0.00478 kcal/mol
excess molar enthalpy ([1]; 1548 kPa, x2 = 0.2217): 0.111 ± 0.00454 kcal/mol
excess molar enthalpy ([1]; 1548 kPa, x2 = 0.2603): 0.106 ± 0.0043 kcal/mol
excess molar enthalpy ([1]; 1548 kPa, x2 = 0.3327): 0.0959 ± 0.00382 kcal/mol
excess molar enthalpy ([1]; 1548 kPa, x2 = 0.3993): 0.0877 ± 0.00359 kcal/mol
excess molar enthalpy ([1]; 1548 kPa, x2 = 0.4608): 0.0791 ± 0.00335 kcal/mol
excess molar enthalpy ([1]; 1548 kPa, x2 = 0.5707): 0.0636 ± 0.00263 kcal/mol
excess molar enthalpy ([1]; 1548 kPa, x2 = 0.666): 0.0483 ± 0.00201 kcal/mol
excess molar enthalpy ([1]; 1548 kPa, x2 = 0.7495): 0.0384 ± 0.0016 kcal/mol
excess molar enthalpy ([1]; 1548 kPa, x2 = 0.8568): 0.0227 ± 0.000956 kcal/mol

CCO [ethanol] + CCCCCCn1cc[n+](C)c1.O=S(=O)([O-])C(F)(F)F
activity coefficient ([2]; 303.15 K, dilutor technique): 1.05 ± 0.07
activity coefficient ([2]; 313.15 K, dilutor technique): 1 ± 0.06
activity coefficient ([2]; 323.15 K, dilutor technique): 0.94 ± 0.06
activity coefficient ([2]; 333.15 K, dilutor technique): 0.86 ± 0.06

CCO [ethanol] + CCCC[N+]1(C)CCCC1.O=S(=O)([O-])C(F)(F)F
activity coefficient ([2]; 313.15 K, dilutor technique): 0.95 ± 0.06
activity coefficient ([2]; 323.15 K, dilutor technique): 0.92 ± 0.06
activity coefficient ([2]; 333.15 K, dilutor technique): 0.88 ± 0.06
activity coefficient ([2]; 343.15 K, dilutor technique): 0.86 ± 0.06

CCO [ethanol] + CCOS(=O)(=O)[O-].CCn1cc[n+](C)c1
activity coefficient ([2]; 323.15 K, dilutor technique): 0.57 ± 0.05
activity coefficient ([2]; 333.15 K, dilutor technique): 0.6 ± 0.05
activity coefficient ([2]; 343.15 K, dilutor technique): 0.65 ± 0.05
activity coefficient ([2]; 353.15 K, dilutor technique): 0.7 ± 0.05

CC1CCCCC1 [methylcyclohexane] + CCCCCCCC[N+]1(C)CCCC1.O=S(=O)([N-]S(=O)(=O)C(F)(F)F)C(F)(F)F
activity coefficient ([2]; 303.15 K, dilutor technique): 4.59 ± 0.41
activity coefficient ([2]; 313.15 K, dilutor technique): 4.41 ± 0.39
activity coefficient ([2]; 323.15 K, dilutor technique): 4.29 ± 0.38
activity coefficient ([2]; 333.15 K, dilutor technique): 4.18 ± 0.37

CC1CCCCC1 [methylcyclohexane] + CCCCCC[n+]1ccn(C)c1.O=S(=O)([N-]S(=O)(=O)C(F)(F)F)C(F)(F)F
activity coefficient ([2]; 303.15 K, dilutor technique): 6.83 ± 0.61
activity coefficient ([2]; 313.15 K, dilutor technique): 6.59 ± 0.59
activity coefficient ([2]; 323.15 K, dilutor technique): 6.3 ± 0.56
activity coefficient ([2]; 333.15 K, dilutor technique): 6.06 ± 0.54

CC1CCCCC1 [methylcyclohexane] + CCCCCCn1cc[n+](C)c1.O=S(=O)([O-])C(F)(F)F
activity coefficient ([2]; 303.15 K, dilutor technique): 10.5 ± 0.95
activity coefficient ([2]; 313.15 K, dilutor technique): 10.2 ± 0.9
activity coefficient ([2]; 323.15 K, dilutor technique): 9.77 ± 0.88
activity coefficient ([2]; 333.15 K, dilutor technique): 9.49 ± 0.85

Cc1ccccc1 [toluene] + CCCCCCCC[N+]1(C)CCCC1.O=S(=O)([N-]S(=O)(=O)C(F)(F)F)C(F)(F)F
activity coefficient ([2]; 303.15 K, dilutor technique): 0.67 ± 0.05
activity coefficient ([2]; 313.15 K, dilutor technique): 0.73 ± 0.05
activity coefficient ([2]; 323.15 K, dilutor technique): 0.8 ± 0.05
activity coefficient ([2]; 333.15 K, dilutor technique): 0.86 ± 0.06

Cc1ccccc1 [toluene] + CCCCCC[n+]1ccn(C)c1.O=S(=O)([N-]S(=O)(=O)C(F)(F)F)C(F)(F)F
activity coefficient ([2]; 303.15 K, dilutor technique): 0.85 ± 0.06
activity coefficient ([2]; 313.15 K, dilutor technique): 0.95 ± 0.06
activity coefficient ([2]; 323.15 K, dilutor technique): 1.05 ± 0.07
activity coefficient ([2]; 333.15 K, dilutor technique): 1.14 ± 0.07

Cc1ccccc1 [toluene] + CCCCCCn1cc[n+](C)c1.O=S(=O)([O-])C(F)(F)F
activity coefficient ([2]; 303.15 K, Dilutor technique): 1.38 ± 0.09
activity coefficient ([2]; 313.15 K, Dilutor technique): 1.52 ± 0.1
activity coefficient ([2]; 323.15 K, Dilutor technique): 1.65 ± 0.12
activity coefficient ([2]; 333.15 K, Dilutor technique): 1.75 ± 0.12

O [water] + CCCCCCn1cc[n+](C)c1.O=S(=O)([O-])C(F)(F)F
activity coefficient ([3]; 303.15 K): 1.31 ± 0.09
activity coefficient ([3]; 313.15 K): 1.04 ± 0.06
activity coefficient ([3]; 323.15 K): 0.82 ± 0.05
activity coefficient ([3]; 333.15 K): 0.64 ± 0.05

O [water] + CCCC[N+]1(C)CCCC1.O=S(=O)([O-])C(F)(F)F
activity coefficient ([2]; 313.15 K, dilutor technique): 0.67 ± 0.05
activity coefficient ([2]; 323.15 K, dilutor technique): 0.56 ± 0.05
activity coefficient ([2]; 333.15 K, dilutor technique): 0.51 ± 0.04
activity coefficient ([2]; 343.15 K, dilutor technique): 0.44 ± 0.04
